Assay results as given in BindingDB's records for doi:10.7270/Q23B5XSC (Nmmlsc, 2012).
pEC50: −log10 of the molar value.

Target: C-C chemokine receptor type 5 (Homo sapiens, UniProt P51681)
Sequence (P51681 whole entry): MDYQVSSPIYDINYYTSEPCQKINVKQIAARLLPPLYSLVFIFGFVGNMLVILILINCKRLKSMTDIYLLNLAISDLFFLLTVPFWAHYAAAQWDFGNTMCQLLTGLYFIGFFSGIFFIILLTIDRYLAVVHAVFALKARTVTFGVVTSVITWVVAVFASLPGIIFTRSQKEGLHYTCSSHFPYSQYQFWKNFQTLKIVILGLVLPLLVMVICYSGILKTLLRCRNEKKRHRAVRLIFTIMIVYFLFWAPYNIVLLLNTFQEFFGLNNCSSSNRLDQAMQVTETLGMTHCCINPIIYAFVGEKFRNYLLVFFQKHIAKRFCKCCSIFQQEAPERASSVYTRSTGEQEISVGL

pEC50	SMILES
8.13	CN(CC(=O)N1CCN(c2ccccn2)CC1)S(=O)(=O)c1ccc(Cl)cc1
7.71	CC(=O)Nc1ccc(S(=O)(=O)NCCc2csc(-c3cccnc3)n2)cc1
6.91	CCOC(=O)c1ccc(NC(=O)Cn2nnc(-c3ccccc3)n2)cc1 [SMR000021419]
6.73	CCOC(=O)c1ccc(NC(=O)COc2ccc(S(=O)(=O)N3CCCC3)cc2)cc1 [SMR000124597]
